Several values for one entry are separate records, joined by “and”; a condition that tells them apart may be missing. Identical values can stand only once. Toxic doses and inconclusive results are not listed. Square brackets hold non-standard residues; d marks the D form. Peptide text beside a SMILES is read from it. ξ: configuration not given here. ξH = NC(Cc1c[nH]cn1)C(=O)O
Tested on: BDF1 mice, B16 melanoma ip, median survival T/C
Test: NCI In Vivo Anticancer Drug Screen. Data for tumor model B16 Melanoma (intraperitoneal) in B6D2F1 (BDF1) mice
Conditions: endpoint: median survival time, higher = longer survival
In short: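 Survival or tumor size is measured after treatment of tumor-bearing mice and normalised to the vehicle-treated control group.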

[1] = dose: 50.0 mg/kg/injection, schedule: Q01DX009 (ip), vehicle: saline
[2] = dose: 100.0 mg/kg/injection, schedule: Q01DX009 (ip), vehicle: saline
[3] = dose: 200.0 mg/kg/injection, schedule: Q01DX009 (ip), vehicle: saline
[4] = dose: 400.0 mg/kg/injection, schedule: Q01DX009 (ip), vehicle: saline
[5] = dose: 50.0 mg/kg/injection, schedule: Q01DX009 (ip), vehicle: Klucel (hydroxypropylcellulose) (HPC)
[6] = dose: 100.0 mg/kg/injection, schedule: Q01DX009 (ip), vehicle: Klucel (hydroxypropylcellulose) (HPC)
[7] = dose: 25.0 mg/kg/injection, schedule: Q01DX009 (ip), vehicle: saline
[8] = dose: 200.0 mg/kg/injection, schedule: Q01DX009 (ip), vehicle: Klucel (hydroxypropylcellulose) (HPC)

## CCOC(=O)Nc1ccccc1
dose: 100.0 mg/kg/injection, schedule: Q04DX003 (ip), vehicle: gum acacia
  T/C: 95 % of control
dose: 200.0 mg/kg/injection, schedule: Q04DX003 (ip), vehicle: gum acacia
  T/C: 102 % of control

## NCC(=O)NCC(=O)NC(Cc1cnc[nH]1)C(=O)O (stereo not drawn) (H-Gly-Gly-[ξH]-OH)
[1]
  T/C: 92 % of control
[2]
  T/C: 99 % of control
[3]
  T/C: 88 % of control
[4]
  T/C: 101 % of control

## C/C(=C\c1ccccc1)C(=O)c1ccccc1
dose: 100.0 mg/kg/injection, schedule: Q04DX003 (ip), vehicle: saline with Tween-80
  T/C: 100 % of control
dose: 200.0 mg/kg/injection, schedule: Q04DX003 (ip), vehicle: saline with Tween-80
  T/C: 113 % of control
dose: 400.0 mg/kg/injection, schedule: Q04DX003 (ip), vehicle: saline with Tween-80
  T/C: 92 % of control

## FC(F)(F)c1ccc(Cl)c(NC2=NCCCS2)c1
[5]
  T/C: 96 % of control
[6]
  T/C: 89 % of control

## COc1ccc2c(=O)cc(-c3ccccc3)[nH]c2c1
dose: 12.5 mg/kg/injection, schedule: Q01DX009 (ip), vehicle: saline
  T/C: 114 % of control
[7]
  T/C: 117 % of control
[1]
  T/C: 120 % of control

## COc1ccc(NC(=O)Nc2ccc(C(C)C)cc2)cc1
[6]
  T/C: 94 % of control
[8]
  T/C: 94 % of control
dose: 400.0 mg/kg/injection, schedule: Q01DX009 (ip), vehicle: Klucel (hydroxypropylcellulose) (HPC)
  T/C: 97 % of control

## CCCCCCCC(=O)CCCCC
dose: 50.0 mg/kg/injection, schedule: Q01DX009 (ip), vehicle: other
  T/C: 90 % of control
dose: 100.0 mg/kg/injection, schedule: Q01DX009 (ip), vehicle: other
  T/C: 94 % of control
dose: 200.0 mg/kg/injection, schedule: Q01DX009 (ip), vehicle: other
  T/C: 100 % of control

## NC(Cc1cc(I)c(O)c(I)c1)C(=O)O (stereo unspecified)
[7]
  T/C: 106 % of control
[1]
  T/C: 112 % of control
dose: 100.0 mg/kg/injection, schedule: Q01DX009 (ip), vehicle: carboxymethylcellulose (CMC)
  T/C: 108 % of control
[2]
  T/C: 116 % of control
dose: 200.0 mg/kg/injection, schedule: Q01DX009 (ip), vehicle: carboxymethylcellulose (CMC)
  T/C: 115 % of control
[3]
  T/C: 110 % of control
[4]
  T/C: 100 % of control

## COc1cc2ccc3c4cc5c(cc4c[n+](C)c3c2cc1OC)OCO5
dose: 10.0 mg/kg/injection, schedule: Q01DX009 (ip), vehicle: Klucel (hydroxypropylcellulose) (HPC)
  T/C: 104 % of control

## CCCCCCCCCCCCSC1=CC(=O)C(OC)=C(OC)C1=O
dose: 6.25 mg/kg/injection, schedule: Q01DX030 (ip), vehicle: saline with Tween-80
  T/C: 99 % of control
dose: 12.5 mg/kg/injection, schedule: Q01DX030 (ip), vehicle: saline with Tween-80
  T/C: 95 % of control
dose: 25.0 mg/kg/injection, schedule: Q01DX030 (ip), vehicle: saline with Tween-80
  T/C: 91 % of control

## [Cl][Pt+2][Cl].[NH-]c1ccccc1[NH-]
dose: 0.63 mg/kg/injection, schedule: Q01DX009 (ip), vehicle: saline with Tween-80
  T/C: 117 % of control
dose: 1.25 mg/kg/injection, schedule: Q01DX009 (ip), vehicle: Klucel (hydroxypropylcellulose) (HPC)
  T/C: 100 % of control and 123 % of control
dose: 1.25 mg/kg/injection, schedule: Q01DX009 (ip), vehicle: saline with Tween-80
  T/C: 117 % of control
dose: 2.5 mg/kg/injection, schedule: Q01DX009 (ip), vehicle: Klucel (hydroxypropylcellulose) (HPC)
  T/C: 92 % of control
dose: 2.5 mg/kg/injection, schedule: Q01DX009 (ip), vehicle: saline with Tween-80
  T/C: 122 % of control
dose: 10.0 mg/kg/injection, schedule: Q01DX009 (ip), vehicle: saline with Tween-80
  T/C: 92 % of control

## O=CNC(CSC(c1ccccc1)c1ccccc1)C(=O)O (stereo unspecified)
dose: 50.0 mg/kg/injection, schedule: Q04DX003 (ip), vehicle: Klucel (hydroxypropylcellulose) (HPC)
  T/C: 105 % of control
dose: 100.0 mg/kg/injection, schedule: Q04DX003 (ip), vehicle: Klucel (hydroxypropylcellulose) (HPC)
  T/C: 100 % of control
dose: 200.0 mg/kg/injection, schedule: Q04DX003 (ip), vehicle: Klucel (hydroxypropylcellulose) (HPC)
  T/C: 94 % of control

## CCCCNC(=O)OCC(C)(CCC)COC(N)=O (stereo unspecified)
[5]
  T/C: 92 % of control
[6]
  T/C: 92 % of control
[8]
  T/C: 94 % of control

## CCCCNCCN(CC)CC
[7]
  T/C: 100 % of control
[1]
  T/C: 100 % of control
[2]
  T/C: 98 % of control

## CCC(=O)NC1=C(N2CC2C)C(=O)C(NC(=O)CC)=C(N2CC2C)C1=O (stereo unspecified)
dose: 0.39 mg/kg/injection, schedule: Q01DX009 (ip), vehicle: Klucel (hydroxypropylcellulose) (HPC)
  T/C: 119 % of control
dose: 0.78 mg/kg/injection, schedule: Q01DX009 (ip), vehicle: Klucel (hydroxypropylcellulose) (HPC)
  T/C: 95 % of control
dose: 1.56 mg/kg/injection, schedule: Q01DX009 (ip), vehicle: Klucel (hydroxypropylcellulose) (HPC)
  T/C: 111 % of control
dose: 3.12 mg/kg/injection, schedule: Q01DX009 (ip), vehicle: Klucel (hydroxypropylcellulose) (HPC)
  T/C: 102 % of control
dose: 6.25 mg/kg/injection, schedule: Q01DX009 (ip), vehicle: Klucel (hydroxypropylcellulose) (HPC)
  T/C: 123 % of control

## CC(C)[C@](O)(C(=O)OCC1=CC[N+]2([O-])CC[C@@H](O)[C@@H]12)[C@H](C)O (stereo partly specified)
dose: 12.5 mg/kg/injection, schedule: Q01DX009 (ip), vehicle: water
  T/C: 105 % of control
dose: 16.0 mg/kg/injection, schedule: Q03HX008 (ip), vehicle: water
  T/C: 93 % of control
dose: 16.0 mg/kg/injection, schedule: Q03HX016 (ip), vehicle: water
  T/C: 96 % of control
dose: 16.0 mg/kg/injection, schedule: Q03HX024 (ip), vehicle: water
  T/C: 96 % of control
dose: 25.0 mg/kg/injection, schedule: Q01DX009 (ip), vehicle: water
  T/C: 117 % of control
dose: 32.0 mg/kg/injection, schedule: Q03HX008 (ip), vehicle: water
  T/C: 99 % of control
dose: 32.0 mg/kg/injection, schedule: Q03HX016 (ip), vehicle: water
  T/C: 94 % of control
dose: 32.0 mg/kg/injection, schedule: Q03HX024 (ip), vehicle: water
  T/C: 100 % of control
dose: 64.0 mg/kg/injection, schedule: Q01DX009 (ip), vehicle: saline
  T/C: 113 % of control
dose: 64.0 mg/kg/injection, schedule: Q01DX009 (ip), vehicle: water
  T/C: 103 % of control
dose: 64.0 mg/kg/injection, schedule: Q03HX008 (ip), vehicle: water
  T/C: 108 % of control
dose: 64.0 mg/kg/injection, schedule: Q03HX016 (ip), vehicle: water
  T/C: 108 % of control
dose: 64.0 mg/kg/injection, schedule: Q03HX024 (ip), vehicle: water
  T/C: 120 % of control
dose: 100.0 mg/kg/injection, schedule: Q01DX009 (ip), vehicle: saline sonified
  T/C: 104 % of control
dose: 128.0 mg/kg/injection, schedule: Q01DX001 (ip), vehicle: water
  T/C: 103 % of control
dose: 128.0 mg/kg/injection, schedule: Q01DX009 (ip), vehicle: saline
  T/C: 113 % of control
dose: 128.0 mg/kg/injection, schedule: Q01DX009 (ip), vehicle: water
  T/C: 119 % of control
dose: 128.0 mg/kg/injection, schedule: Q01DX009 (oral), vehicle: water
  T/C: 95 % of control and 101 % of control
dose: 128.0 mg/kg/injection, schedule: Q03HX008 (ip), vehicle: water
  T/C: 123 % of control
dose: 128.0 mg/kg/injection, schedule: Q04DX003 (ip), vehicle: water
  T/C: 102 % of control
dose: 128.0 mg/kg/injection, schedule: Q08DX002 (ip), vehicle: water
  T/C: 105 % of control
dose: 228.0 mg/kg/injection, schedule: Q01DX009 (ip), vehicle: saline
  T/C: 119 % of control
dose: 256.0 mg/kg/injection, schedule: Q01DX009 (oral), vehicle: water
  T/C: 93 % of control and 96 % of control
dose: 256.0 mg/kg/injection, schedule: Q03HX016 (ip), vehicle: water
  T/C: 150 % of control
dose: 256.0 mg/kg/injection, schedule: Q04DX003 (ip), vehicle: water
  T/C: 106 % of control
dose: 256.0 mg/kg/injection, schedule: Q08DX002 (ip), vehicle: water
  T/C: 118 % of control
dose: 512.0 mg/kg/injection, schedule: Q01DX001 (ip), vehicle: water
  T/C: 113 % of control
dose: 512.0 mg/kg/injection, schedule: Q01DX009 (ip), vehicle: water
  T/C: 150 % of control and 182 % of control
dose: 512.0 mg/kg/injection, schedule: Q01DX009 (oral), vehicle: water
  T/C: 94 % of control and 95 % of control
dose: 512.0 mg/kg/injection, schedule: Q08DX002 (ip), vehicle: water
  T/C: 123 % of control
dose: 600.0 mg/kg/injection, schedule: Q01DX009 (ip), vehicle: water
  T/C: 163 % of control
dose: 768.0 mg/kg/injection, schedule: Q01DX009 (ip), vehicle: saline
  T/C: 100 % of control
dose: 800.0 mg/kg/injection, schedule: Q01DX009 (ip), vehicle: saline sonified
  T/C: 150 % of control
dose: 1024.0 mg/kg/injection, schedule: Q01DX009 (oral), vehicle: water
  T/C: 97 % of control and 99 % of control
dose: 2048.0 mg/kg/injection, schedule: Q08DX002 (ip), vehicle: water
  T/C: 169 % of control

Reference: PubChem BioAssay AID192 (DTP/NCI, 2004)
